Experimental findings from patent US8895572B2, “Fused heterocyclic indane carboxamide CGRP receptor antagonists” (Merck Sharp & Dohme Corp., priority 2010, dated 2014) are described below.

In this test the target is T1, recombinant human CL receptor/RAMP1 (Homo sapiens, UniProt O60894+Q16602).
T1 construct: expressed in transfected cells; membranes used
T1 sequence (Q16602 23-461): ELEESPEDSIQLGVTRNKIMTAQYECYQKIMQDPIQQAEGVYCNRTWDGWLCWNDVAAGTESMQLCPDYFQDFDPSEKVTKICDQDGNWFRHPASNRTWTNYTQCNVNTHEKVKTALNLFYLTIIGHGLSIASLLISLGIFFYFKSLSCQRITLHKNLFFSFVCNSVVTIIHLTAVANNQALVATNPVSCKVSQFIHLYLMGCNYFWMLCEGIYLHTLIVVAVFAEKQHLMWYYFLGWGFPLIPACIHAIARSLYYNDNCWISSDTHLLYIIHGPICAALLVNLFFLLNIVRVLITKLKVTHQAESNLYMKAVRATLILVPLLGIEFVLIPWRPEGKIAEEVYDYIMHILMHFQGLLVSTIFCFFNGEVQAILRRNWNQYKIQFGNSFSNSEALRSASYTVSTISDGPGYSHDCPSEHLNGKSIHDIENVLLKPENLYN
T1 sequence (O60894 27-148): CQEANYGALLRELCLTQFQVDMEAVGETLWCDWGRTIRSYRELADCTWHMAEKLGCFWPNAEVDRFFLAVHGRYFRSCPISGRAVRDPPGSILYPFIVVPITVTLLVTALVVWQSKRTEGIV
Description: Recombinant receptor binding assay (125I-hCGRP). The settings on record: membranes of HEK 293 cells expressing human CL receptor/RAMP1, 10 pM 125I-hCGRP, 3 h at room temperature. The procedure:
Human CL receptor (Genbank accession number L76380) was subcloned into the expression vector pIREShyg2 (BD Biosciences Clontech) as a 5′NheI and 3′ PmeI fragment. Human RAMP1 (Genbank accession number AJ001014) was subcloned into the expression vector pIRESpuro2 (BD Biosciences Clontech) as a 5′NheI and 3′NotI fragment. HEK 293 cells (human embryonic kidney cells; ATCC #CRL-1573) were cultured in DMEM with 4.5 g/L glucose, 1 mM sodium pyruvate and 2 mM glutamine supplemented with 10% fetal bovine serum (FBS), 100 units/mL penicillin and 100 μg/mL streptomycin, and maintained at 37° C. and 95% humidity. Cells were subcultured by treatment with 0.25% trypsin with 0.1% EDTA in HBSS. Stable cell line generation was accomplished by co-transfecting 10 μg of DNA with 30 μg Lipofectamine 2000 (Invitrogen) in 75 cm^2 flasks. CL receptor and RAMP1 expression constructs were co-transfected in equal amounts. Twenty-four hours after transfection the cells were diluted and selective medium (growth medium+300 μg/mL hygromycin and 1 μg/mL puromycin) was added the following day. A clonal cell line was generated by single cell deposition utilizing a FACS Vantage SE (Becton Dickinson). Growth medium was adjusted to 150 μg/mL hygromycin and 0.5 μg/mL puromycin for cell propagation.
Cells expressing recombinant human CL receptor/RAMP1 were washed with PBS and harvested in harvest buffer containing 50 mM HEPES, 1 mM EDTA and Complete™ protease inhibitors (Roche). The cell suspension was disrupted with a laboratory homogenizer and centrifuged at 48,000 g to isolate membranes. The pellets were resuspended in harvest buffer plus 250 mM sucrose and stored at […]. For binding assays, 20 μg of membranes were incubated in 1 mL binding buffer (10 mM HEPES, pH 7.4, 5 mM MgCl2, and 0.2% BSA) for 3 h at room temperature containing 10 pM ^125I-hCGRP (GE Healthcare) and antagonist. The assay was terminated by filtration through 96-well GFB glass fiber filter plates (PerkinElmer) that had been blocked with 0.05% polyethyleneimine. The filters were washed 3 times with ice-cold assay buffer (10 mM HEPES, pH 7.4, and 5 mM MgCl2). Scintillation fluid was added and the plates were counted on a Topcount (Packard). Non-specific binding was determined and the data analysis was carried out with the apparent dissociation constant (Ki) determined by using a non-linear least squares fitting the bound CPM data to the equation below:
[formula] Where Y is observed CPM bound, Ymax is total bound counts, Ymin is non specific bound counts, (Ymax−Ymin) is specific bound counts, % Imax is the maximum percent inhibition, % 1 min is the minimum percent inhibition, radiolabel is the probe, and the Kd is the apparent dissociation constant for the radioligand for the receptor as determined by hot saturation experiments.
As for `O=C(N[C@H]1C[C@@H](c2cccc(F)c2F)Cn2c(CC(F)(F)F)cnc21)c1ccc2c(c1)C[C@@]1(C2)C(=O)Nc2ncccc21` [Example 1.2, (2R)—N-[(6S,8S)-6-(2,3-Difluorophenyl)-3-(2,2,2-trifluoroethyl)-5,6,7,8-tetrahydroimidazo[1,2-a]pyridin-8-yl]-2′-oxo-1,1′,2′,3-tetrahydrospiro[indene-2,3′-pyrrolo[2,3-b]pyridine]-5-carboxamide], the Ki amounted to 0.07 nM.

On to `C[C@@H]1[C@H](c2ccccc2)C[C@H](NC(=O)c2ccc3c(c2)C[C@@]2(C3)C(=O)Nc3ncncc32)c2ncc(C(C)(C)O)n21` [Example 2.1, (2R)—N-[(5R,6S,8S)-3-(2-Hydroxypropan-2-yl)-5-methyl-6-phenyl-5,6,7,8-tetrahydroimidazo[1,2-a]pyridin-8-yl]-6′-oxo-1,3′,6′,7′-tetrahydrospiro[indene-2,5′-pyrrolo[2,3-d]pyrimidine]-5-carboxamide], for which the Ki is 0.19 nM.

Take `COC(C)(C)c1cnc2n1C[C@H](c1cccc(F)c1F)C[C@@H]2NC(=O)c1ccc2c(c1)C[C@@]1(C2)C(=O)Nc2ncccc21` [Example 1.8, (2R)—N-[(6S,8S)-6-(2,3-Difluorophenyl)-3-(2-methoxypropan-2-yl)-5,6,7,8-tetrahydroimidazo[1,2-a]pyridin-8-yl]-2′-oxo-1,1′,2′,3-tetrahydrospiro[indene-2,3′-pyrrolo[2,3-b]pyridine]-5-carboxamide]: the Ki came out at 0.03 nM.

On to `O=C(N[C@H]1C[C@@H](c2cccc(F)c2F)Cn2c(CC(F)(F)F)nnc21)c1ccc2c(c1)C[C@@]1(C2)C(=O)Nc2ncccc21` [Example 1.14, (2R)—N-[(6S,8S)-6-(2,3-Difluorophenyl)-3-(2,2,2-trifluoroethyl)-5,6,7,8-tetrahydr[1,2,4]triazolo[4,3-a]pyridin-8-yl]-2′-oxo-1,1′,2′,3-tetrahydrospiro[indene-2,3′-pyrrolo[2,3-b]pyridine]-5-carboxamide], for which the Ki came to 0.07 nM.

As for `C[C@@H]1[C@H](c2ccccc2)C[C@H](NC(=O)c2ccc3c(c2)C[C@@]2(C3)C(=O)Nc3ncccc32)c2nnc(C3(C(F)(F)F)CC3)n21` [Example 1.19, (2R)—N-{(5R,6S,8S)-5-Methyl-6-phenyl-3-[1-(trifluoromethyl)cyclopropyl]-5,6,7,8-tetrahydro[1,2,4]triazolo[4,3-a]pyridin-8-yl}-2′-oxo-1,1′,2′,3-tetrahydrospiro[indene-2,3′-pyrrolo[2,3-b]pyridine]-5-carboxamide], the Ki was 0.39 nM.

On to `C[C@@H]1[C@H](c2ccccc2)C[C@H](NC(=O)c2ccc3c(c2)C[C@@]2(C3)C(=O)Nc3ncccc32)c2ncc(C(C)(C)O)n21` [Example 1.20, (2R)—N-[(5R,6S,8S)-3-(2-Hydroxypropan-2-yl)-5-methyl-6-phenyl-5,6,7,8-tetrahydroimidazo[1,2-a]pyridin-8-yl]-2′-oxo-1,1′,2′,3-tetrahydrospiro[indene-2,3′-pyrrolo[2,3-b]pyridine]-5-carboxamide], for which the Ki is 0.27 nM.
